US10329262B2, “Quinazolinone antibiotics” (priority 2013, dated 2019)
≈ marks a conversion by molar mass, not a printed value.

Assays:
Pharmacokinetics in mice = settings: Table 1, ICR female mice, single dose iv
Method: We conducted first fast PK studies (n=2 mice per time point, 5 time points) dosing the compounds iv, followed by full PK studies for selected compounds (n=3 mice per time point, 10-12 time points per route of administration, iv and po).
A single dose of compound 2 was administered to mice (n=3 per time point) by tail vein injection or by oral gavage at 10 mg/kg. Blood was collected by cardiac puncture in heparinized syringes at 2, 5, 20, and 40 min and at 1, 2, 3, 4, 8, 18, and 24 h after iv dosing and at 0.5, 1, 2, 3, 4, 6, 9, 24, and 30 h after po dosing. Blood was centrifuged to obtain plasma. A 50-μL aliquot of plasma was mixed with 100 μL of acetonitrile containing internal standard (5 μM final concentration), followed by centrifugation at 20,000 g for 15 min. The supernatant was analyzed by reverse-phase UPLC. PK parameters were calculated as described in the Plasma protein binding and Pharmacokinetics sections below (see also Gooyit et al. J. Med. Chem. 54, 6676-6690 (2011)).
The area under the concentration-time curve up to the last quantifiable sampling time (AUC0-last) was calculated by the trapezoidal rule. AUC0-∞ was calculated as AUC0-last+(Clast/k), where Clast is the concentration at the last quantifiable sampling time and k is the elimination rate constant. The concentration at time=0 (C0) was estimated from the first sampling times by back-extrapolation using log-linear regression analysis. Half-lives (t1/2α and t1/2β) were estimated from the linear portion of the initial or terminal concentration-time data by linear regression, where the slope of the line was the rate constant k and t1/2α=ln 2/k. Volume of distribution (Vd) was calculated as the dose divided by the initial concentration (C0). Clearance (CL) was calculated from the dose divided by AUC0-∞. Oral bioavailability (F) was calculated by dividing the AUCpo by the AUCiv, as equivalent iv and po doses were administered.

MRSA ATCC 27660 = assay: Mouse peritonitis model of MRSA infection; assay type: in vivo, mice; settings: n = 6, 48 h
Method: We evaluated several compounds in in vivo mouse infection models, as well as in pharmacokinetic (PK) studies in mice (Table 1). The in vivo efficacy was determined using the rapid mouse peritonitis model of infection, in which the end point is death or survival in 48 hours. We initially dosed the compounds intravenously (iv) at a single dose level. If the compound has good in vivo efficacy after iv administration, we then evaluated efficacy at five dose levels. We also investigated in vivo efficacy after oral (po) administration.
Groups (n=6/group) of mice were infected with MRSA (0.5 mL of ATCC 27660 at a final concentration of 5×10^7 CFU/mL in 5% porcine mucin) intraperitoneally (ip). Following infection, mice were given iv doses by tail vein injection of compound 2, vancomycin (5 mg/kg, positive control), or vehicle at 30 min and 4.5 h after infection. The number of surviving mice was monitored for 48 h. The negative control (vehicle) typically results in the death of all mice. Quinazolinone 2 was dissolved in saline, sterile-filtered, and administered at doses of 2.5, 5, 7.5, 10, 20, and 30 mg/kg. The ED50 value was calculated using GraphPad prism 5.

[1] = system: S. aureus ATCC 29213 (MSSA); assay: MIC, CLSI broth microdilution, S. aureus ATCC 29213; assay type: cell-based, Staphylococcus aureus; settings: for MIC (w/ BSA): S. aureus ATCC 29213, in the presence of bovine serum albumin; for MIC: S. aureus strain ATCC 29213 (MSSA)
Method: (§1) MICs were evaluated following the CLSI microdilution method in BBL™ Mueller-Hinton II broth (Wikler et al., Clinical Laboratory Standards Institute Document M7-A7, 29 (2009)). Briefly, two-fold serial dilutions of compound were prepared in triplicate in 96-well plates and inoculated with 5×10^5 cfu/mL of the bacterial suspension. Plates were incubated at 37° C. for 16-20 hours.

S. aureus NRS100 = assay: MIC, CLSI broth microdilution, S. aureus NRS100; assay type: cell-based, Staphylococcus aureus; settings: Table 2, S. aureus NRS100
Method: as §1

S. aureus VRS2 = assay: MIC, CLSI broth microdilution, S. aureus VRS2; assay type: cell-based, Staphylococcus aureus; settings: Table 2, S. aureus VRS2
Method: as §1

[2] = system: S. epidermidis ATCC 35547; assay: MIC, CLSI broth microdilution, S. epidermidis ATCC 35547; assay type: cell-based; settings: Table 2, S. epidermidis ATCC 35547
Method: as §1

S. aureus NRS119 = assay: MIC, CLSI broth microdilution, S. aureus NRS119; assay type: cell-based, Staphylococcus aureus; settings: Table 2, S. aureus NRS119
Method: as §1

S. aureus NRS120 = assay: MIC, CLSI broth microdilution, S. aureus NRS120; assay type: cell-based, Staphylococcus aureus; settings: Table 2, S. aureus NRS120
Method: as §1

S. aureus VRS1 = assay: MIC, CLSI broth microdilution, S. aureus VRS1; assay type: cell-based, Staphylococcus aureus; settings: Table 2, S. aureus VRS1
Method: as §1

[3] = system: S. haemolyticus ATCC 29970; assay: MIC, CLSI broth microdilution, S. haemolyticus ATCC 29970; assay type: cell-based; settings: Table 2, S. haemolyticus ATCC 29970
Method: as §1

[4] = 5 mg/kg iv at 30 min and 4.5 hr after infection
[5] = 10 mg/kg iv at 30 min and 4.5 hr after infection

## Cc1nc2ccccc2c(=O)o1 [Compound 3]
Pharmacokinetics in mice
  AUC (iv): AUC = 466 μg.min/mL
  CL: CL = 10.7 mL/min/kg
  Vd: Vd = 8.9 mL
MRSA ATCC 27660; [4]
  In Vivo Efficacy (survived/total mice): 1/6 @ 5 mg/kg
[1]
  MIC (w/ BSA): 4 µg/mL
  MIC: 0.25 µg/mL (≈ 1.55 µM)

## CC(=O)Nc1cccc(-n2c(/C=C/c3ccc(F)cc3)nc3ccccc3c2=O)c1 [Compound 5]
Pharmacokinetics in mice
  AUC (iv): AUC = 284 μg.min/mL
  CL: CL = 88.2 mL/min/kg
  Vd: Vd = 55.0 mL
MRSA ATCC 27660; [5]
  In Vivo Efficacy (survived/total mice): 2/6 @ 10 mg/kg
[1]
  MIC (w/ BSA): 8 µg/mL
  MIC: 1 µg/mL (≈ 2.5 µM)

## CS(=O)(=O)Nc1cccc(-n2c(/C=C/c3ccc(F)cc3)nc3ccccc3c2=O)c1 [Compound 6]
Pharmacokinetics in mice
  AUC (iv): AUC = 819 μg.min/mL
  CL: CL = 28.0 mL/min/kg
  Vd: Vd = 91.8 mL
MRSA ATCC 27660; [5]
  In Vivo Efficacy (survived/total mice): 0/6 @ 10 mg/kg
[1]
  MIC (w/ BSA): 1 µg/mL
  MIC: 0.125 µg/mL (≈ 0.287 µM)

## CC(=O)Nc1cccc(-n2c(/C=C/c3ccc(C#N)cc3)nc3ccccc3c2=O)c1 [Compound 8]
Pharmacokinetics in mice
  AUC (iv): AUC = 1187 μg.min/mL
  CL: CL = 131 mL/min/kg
  Vd: Vd = 107 mL
MRSA ATCC 27660; [4]
  In Vivo Efficacy (survived/total mice): 1/6 @ 5 mg/kg
S. aureus NRS100
  MIC: 1 µg/mL (≈ 2.46 µM)
S. aureus VRS2
  MIC: 0.125 µg/mL (≈ 0.308 µM)
[1]
  MIC (w/ BSA): 2 µg/mL
  MIC: 0.25 µg/mL (≈ 0.615 µM)
[2]
  MIC: 0.06 µg/mL (≈ 0.148 µM)
S. aureus NRS119
  MIC: 0.25 µg/mL (≈ 0.615 µM)
S. aureus NRS120
  MIC: 0.25 µg/mL (≈ 0.615 µM)
S. aureus VRS1
  MIC: 4 µg/mL (≈ 9.84 µM)
[3]
  MIC: 0.25 µg/mL (≈ 0.615 µM)
